One series deals with IL-4. Nature of the series: Mediator release, IL-4 (Con A-stimulated PBML, sandwich ELISA). It counts as cell-based. To be noted: Homo sapiens. How it is done:
(§1) In this experiment, test compound and/or vehicle were preincubated with human peripheral blood mononuclear leukocyte (PBML, 1×10^6/ml) in RPMI buffer pH 7.4 for 2 hours. Concanavalin A (Con A, 20 μg/ml) was then added to stimulate the cells overnight in 5% CO2 at 37° C. IL-4 and IL-10 cytokine levels in the conditioned medium were then quantified using a sandwich ELISA kit. Compounds were screened at 10, 1, 0.1, 0.01 and 0.001 μM.
For orientation: An ELISA detects its analyte on a solid surface through an enzyme-linked reagent.

The subject of the next series is IL-10. Briefly: Mediator release, IL-10 (Con A-stimulated PBML, sandwich ELISA). The series is classed as cell-based. Conditions: Homo sapiens, IL-10 release. How it is done: as §1
The subject of another series is B-lymphocyte cells. Nature of the series: Cell Proliferation, B-Cell + LPS ([3H]thymidine incorporation). Conditions: Mus musculus. It counts as cell-based, balb/c mice. As for the experimental part: B-lymphocyte cells isolated from the spleen of balb/c mice weighing 17±1 g were used. Test compound and/or vehicle were incubated with the cells (1.5×10^6/ml) in the presence of 10 μg/ml lipopolysaccharide (LPS) in AIM-V medium pH 7.4 at 37° C. for 24 hours. [^3H]Thymidine (120 nM) was then added for an additional overnight incubation period. Thymidine incorporation was assessed by liquid scintillation counting.
Test compound-induced suppression of cell proliferation by 50 percent or more (≧50%) relative to vehicle control response indicates significant inhibitory activity.
For orientation: Dividing cells build labelled thymidine or BrdU into new DNA.

Series [1] deals with Experimental Autoimmune Encephalomyelitis (EAE). Nature of the series: Chronic EAE, two doses 72 hours apart (Example 4). It counts as in vivo, guinea pig. Conditions: 20 mg/kg i.p., 2 doses 72 hours apart. How it is done:
In order to test the possibility that a more frequent dosing schedule would offer a more rapid resolution of disease symptoms, an experiment was performed to match the dosing cycle to the observed periodicity of response. Accordingly, the method of Experiment 2 was applied to a cohort of animals and controls, which were allowed to reach the chronic phase of disease at 30 days post immunization. Six animals with a disease score of 1 were selected and half were treated with 20 mg/kg Symadex™ administered intraperitoneally. Two dose were given 72 hours apart to 3 animals. Three animals served as vehicle controls.

The next series has as its system HCT116 cell line. Briefly: GI50 concentration in HCT116 cells. It counts as cell-based. Conditions: Homo sapiens, HCT-116.
The conditions of series [2]: human, body surface area, as free base; cited from earlier work.
Setting [3] is: 1 nM, read-out: % Growth Inhibition.
Where [4] appears, read: 10 nM, read-out: % Growth Inhibition.
The mark [5] stands for this setting: 0.1 μM, read-out: % Growth Inhibition.
[6] abbreviates: 1 μM, read-out: % Growth Inhibition.
Setting [7] is: 10 μM, read-out: % Growth Inhibition.
Where [8] appears, read: B-cell, read-out: % Growth Inhibition.

Molecules are shown by their SMILES.

These results are taken from patent US20060189546A1, “Compounds for treating autoimmune and demyelinating diseases” (priority 2005, published 2006).

For orientation: IC50 means the concentration needed to halve the response being measured. As usually defined, the inhibition is the relative decrease from the control value, in per cent. The GI50 is the concentration giving 50% growth inhibition. High values mean lower sensitivity of the cells, low ones greater sensitivity of the cells.

With `CCN(CC)CCNc1ccc2ncn3c4ccc(O)cc4c(=O)c1c23` [Symadex™, 5-[[(diethylamino)ethyl]amino]-8-hydroxyimidazo[4,5,1-de]-acridine-6-one], the % inhibition of IL-4 release at 0.001 µM with IL-4 (setting [3]) turned out to be 8%. The % inhibition of IL-4 release at 0.01 µM in the series on IL-4 (setting [4]) is 7%. Also, the % inhibition of IL-4 release at 0.1 µM with IL-4 (setting [5]) was determined as 2%. The % inhibition of IL-4 release at 1 µM in the series on IL-4 (setting [6]) was -9%. The % inhibition of IL-4 release at 10 µM in the series on IL-4 (setting [7]) was determined as 105%. Also, the IC50 in the series with IL-4 (IL-4 release) amounted to 3.33 µM; in the series with IL-10 it was 1200 nM; in the series on B-lymphocyte cells (B-Cell + LPS), 38 nM. Further, the inhibition at 0.001 µM in the series on IL-10 (setting [3]) was 1%; in the series with B-lymphocyte cells (B-Cell + LPS, 1 nM, read-out: % Growth Inhibition), 0%. Further, the inhibition at 0.01 µM with IL-10 (setting [4]) worked out at 16%; with B-lymphocyte cells (B-Cell + LPS, 10 nM, read-out: % Growth Inhibition) it was 38%. Besides, the inhibition at 0.1 µM in the series on IL-10 (setting [5]) was found to be 16%; in the series on B-lymphocyte cells (B-Cell + LPS, 0.1 μM, read-out: % Growth Inhibition), 80%. Further, the values for the inhibition at 1 µM in the series with IL-10 (setting [6]) and in the series on B-lymphocyte cells (setting [8]) were 39% and 101%, respectively. In addition, the inhibition at 10 µM with IL-10 (setting [7]) was found to be 99%; in the series on B-lymphocyte cells (setting [8]), 103%. Further, the clinical scores result in series [1] was “reversed the progression of disease and restored baseline clinical scores with just 2 doses”. The molecule further showed a GI50 with HCT116 cell line of 210 nM. In series [2], the “safe and well-tolerated single dose” value is 540 mg/m^2.
